Biological target: mushroom tyrosinase (Agaricus bisporus, UniProt C7FF04)
Assay type: biochemical
Protocol: Tyrosinase inhibitory potential of alk(en)ylhydroxycyclohexanes has not been previously reported.
Tyrosinase inhibitory activity was determined spectrophotometrically with slight modifications. Briefly, tested samples were dissolved in DMSO to a final concentration of 20 mg/mL. In a 24-well plate, 30 μL of the samples was added to 970 μL of potassium phosphate buffer (0.1 M, pH 6.5) and serially diluted two-fold. The mixture (70 μL) was transferred to a 96-well plate containing 30 μL of potassium phosphate buffer (0.1 M, pH 6.5) to obtain increasing concentration range of (1.56–200 μg/mL). Then, 30 μL of mushroom tyrosinase solution (333 Units/mL in phosphate buffer, pH 6.5) was added to each mixture, which was then incubated at 25 °C for 5 min. Thereafter, 110 µL of 2 mM L-tyrosine was added in all wells of a 96-well microtiter plate and further incubated for 30 min at 25 °C. […] The absorbance of the mixture was read at 492 nm using an ELISA microplate reader (VarioSkan Flash, Thermo Fisher Scientific, Vantaa, Finland). All experiments were performed in triplicates. The percent inhibition of tyrosinase was calculated as follows: Tyrosinase inhibitory (%)=(Ao−A1/Ao) × 100 where A0 is the absorbance of the negative control with the enzyme without test samples, A1 is the absorbance of the test samples and enzyme.
Data were expressed as mean ± SD from three independent experiments. The IC50 values, corresponding to the concentration required to inhibit 50% of tyrosinase activity, were calculated from a sigmoidal dose–response of a non-linear regression and R-square values representing the best fit of the model were determined by Pearson nonlinear regression using the GraphPad Prism 5 software (GraphPad Software, San Diego, CA, USA). A one-way ANOVA was performed and differences between means were separated using the Tukey multiple comparison test at p < 0.05. Experiments were performed in triplicate.

Chain of mushroom tyrosinase (C7FF04 1-392): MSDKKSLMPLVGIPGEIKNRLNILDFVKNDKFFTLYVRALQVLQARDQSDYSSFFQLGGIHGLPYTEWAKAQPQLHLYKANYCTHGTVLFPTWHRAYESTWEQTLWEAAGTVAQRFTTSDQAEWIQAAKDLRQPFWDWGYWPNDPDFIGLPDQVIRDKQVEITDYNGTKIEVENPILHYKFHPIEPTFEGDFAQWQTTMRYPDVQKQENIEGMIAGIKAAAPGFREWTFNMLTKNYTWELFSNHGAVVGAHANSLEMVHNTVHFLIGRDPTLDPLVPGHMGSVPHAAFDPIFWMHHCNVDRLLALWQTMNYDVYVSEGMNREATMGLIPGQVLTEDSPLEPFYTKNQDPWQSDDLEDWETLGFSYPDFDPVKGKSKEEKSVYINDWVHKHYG

Structure (SMILES) | tyrosinase inhibition, rating in words
CCCC/C=C\CCCCCCCCCCCc1cccc(O)c1 [Compound 1, 3-heptadec-12′-Z-enyl phenol] | moderately active
CCCC/C=C\CCCCCCCCCCC[C@@]1(O)CCC[C@@H](O)C1 [Compound 2, (1R,3R)-1,3-dihydroxy-3-[heptadec-12′(Z)-enyl]cyclohexane] | good inhibition
CCCC/C=C\CCCCCCCCCCCC[C@@]1(O)C[C@@H](O)[C@H](O)[C@@H](O)[C@H]1O [Compound 3, (1S,2S,3S,4S,5R)-1,2,3,4,5-pentahydroxy-5-[octadec-13′(Z)-enyl]cyclohexane] | good inhibition
CCCC/C=C\CCCCCCCCCCC[C@]1(O)CC[C@@H](O)[C@H](O)C1 [Compound 4, (1R,2S,4R)-1,2,4-trihydroxy-4-[heptadec-12′(Z)-enyl]cyclohexane] | moderately active

From PMC9229927, “New Alk(en)ylhydroxycyclohexanes with Tyrosinase Inhibition Potential from Harpephyllum caffrum Bernh. Gum Exudate” (Molecules, 2022)
